Assays:
Format in all cases: in vivo
[1] = tested on: Balb/c mice; test: open-field test, Balb/c mice (passive type of emotional-stress reaction); parameters: key to Total activity: sum of all locomotor activity counts (crossings + rearings) in 3 min; settings: for effect on the behavior (locomotor activity) of Balb/c mice in open-field test, in words: i.p., screening
Method in brief: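 Male mice, 20-22 g, dosed i.p. in water 30 min before a 3-min open-field test after 1 min in darkness; peripheral, central, rearing and total activity plus defecations recorded; Student t-test. Anxiolysis read as Balb/c activation, sedation as C57B1/6 inhibition.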

[2] = tested on: cats; test: hemodynamics and activity of intact heart in cats under anesthesia; settings: cats i.v.
Method: The effects of compounds on the hemodynamics and activity of intact heart were studied in cats under anesthesia. The experiments were carried out under conditions of open chest. The phase curve of aortic blood flow was the main index of cardiac activity. The compounds were administered i.v. in physiological solution. The t-Student' test was used to estimate the statistical significance.

[3] = tested on: ventricular fibrillations; test: ventricular fibrillation, 7-min occlusion and reperfusion of coronary artery in anesthetized rats; settings: anesthetized rats i.v.; bonnecor 1,0, IX 2,0, X (printed) 1,0 mg/kg
Method: The experiments were conducted in male rats weighing 180-240 g and anesthetized with nembutal (60 mg/kg i.v.) with open chest and artificial respiration. The occlusion of the left coronary artery was performed 1-2 min after experiment beginning with following reperfusion after 7 min. During this period time according to literature data [Krzeminski T., Grzyb J., Kurcok A., Brus R.: Pol.J.Pharmacol., 1992, 44, Suppl., p.169-170] the maximum number of ventricular fibrillations (70-100%) were registered. The ECG in the 2nd standard lead was recorded in “Mingograph-81”. The number of ventricular fibrillations during occlusion and reperfusion periods, the life menacing arrhythmia (fibrillation+paroxysmal ventricular tachycardia) and total number of arrhythmias were calculated. The known antiarrhythmic drug bonnecor was used as the reference agent [Grigorieva E. K., Gorbunova V. V. in: “New antiarrhythmic drug—bonnecor (the pharmacology and clinical usage)”, M., 1993, p.64-67]. The compounds were injected i.v. at the following doses: bonnecor—1,0 mg/kg, compound IX—2,0 mg/kg, compound XX—1,0 mg/kg. The control animals were administered with the equivalent volume of physiological solution (1,0 ml/kg). 4 series of experiments were carried out in 80 rats. The results were assessed according to the method of point scale: the absence of arrhythmia—0 point, extrasystole—1 point, paroxysmal ventricular tachycardia—2 points, ventricular fibrillation—3 points, fibrillation observed during the occlusion of coronary vessel—4 points. For statistical analysis the Fisher's exact probability and Wilconson's methods were used.
[Krzeminski T., Grzyb J., Kurcok A., Brus R.: Pol.J.Pharmacol., 1992, 44, Suppl., p.169-170] have shown that 7 min occlusion with following reperfusion of coronary artery in anesthetized rats produced the ventricular fibrillation (68-100%). Defibrotide and prostacycline decreased the number of fibrillations. We have studied the antifibrillator activity of some derivatives of 2-mercaptbenzimidazole in this model with disturbances of heart rhythm. Bonnecor (1,0 mg/kg) was used as the reference drug. It is well known that this agent produces apronouncedantifibrillatoryactivity [Grigorieva E. K., Gorbunova V. V. in: “New antiarrhythmic drug-bonnecor (the pharmacology and clinical usage)”, M., 1993, p.64-67].

[4] = tested on: C57B1/6 mice; test: open-field test, C57B1/6 mice (active type of emotional-stress reaction); parameters: key to Total activity: sum of all locomotor activity counts (crossings + rearings) in 3 min; settings: for Central activity (crossings) / Peripheral activity (crossings) / Total activity / Vertical activity (rearings): M ± mx
Text: The main point of this approach consists in comparative analysis of the behavioural effects of tested compounds in two inbred strains of mice Balb/c and C57B1/6 with different hereditary types of emotional-stress reactions (ESR). The anxiolytic effect was estimated as the activation of the locomotor activity of animals with “passive” type of ESR (Balb/c mice). The main index describing the sedative properties of tested drugs was the inhibition of the locomotor activity of mice with “active” type of ESR (C57B1/6 strain). The anxioselectivity was evaluated according to coincidence of doses range which activated or inhibited the behavior of mice of different strains. Earlier this approach has been successfully used for estimation of anxioselective activity of such known drugs as phenazepam [Seredenin S. B. et al., Bull.Exp.Biol.Med., 1979, v.88, N7, p.38; Seredenin S. B. et al., Ann.Inst.Super.Sanita, 1990, v.26, N1, p.81-88], mexidol [Seredenin S. B. et al., Khimiko-Farmatsevt.Zhurnal, 1987, N2, p.134; Vironina T. A., Seredenin S. B., Ann.Inst.Super.Sanita, 1988, v.24, N3, p.461-466] and gidazepam [Seredenin S. B. et al., in: “Gidazepam” Kiev, Naukova Dumka, 1992, p.92; Seredenin S. B., Blednov Yu. A., Phys.Chem.Biol.Med., 1993, v.1, N1, p.53-60].
Male C57B1/6 and Balb/c mice (“Stolbovaya” animal farm), weighing 20-22 g were used. The animals were housed in a separate animal room in groups of ten and maintained on 12 h light-dark cycle (light from 8.00 till 20.00) with free access to standard food and water during two weeks before experiment. Testing was performed between 9.00 and 13.00. Every used compound was administered intraperitoneally in water solutions 30 min before testing (0,1 ml solution per 10 g of weight). The “open-field” apparatus consisted of cylinder closed from one end, illuminated by four 75 W lamps fixed to the walls 100 cm above the floor. The “open-field” apparatus was 100 cm in diameter and white-painted; the floor was marked with 3 black circles and some radial lines divided the floor into 16 peripheral and 8 central segments. 30 min after injection each animal was placed in the same peripheral square on the floor for 3 min of testing after 1 min exposure in the dark chamber. The following behavior variables were recorded: 1) the number of crossings in the peripheral area (peripheral activity); 2) the number of crossings in the central segments (central activity); 3) the number of rearings (vertical activity); 4) the emotionality was measured as the number of defecations during the test. The sum of all types of locomotor activity was marked as total activity. The t-Student test was used for statistical analysis.

[5] = tested on: outbred male rats; test: conflict Vogel test (punished licking of water); settings: M ± mx
Method: The study of anxiolytic activity of chosen compounds was carried out in the experiments with outbred male rats weighing 180-200 g in standard conflict Vogel' procedure [Voronina T. A. et al., in: “Phenazepam”, Naukova Dumka, Kiev, 1982, p.89, 93, 146]. The main aim of the initial step of experiments was the training of rats to develop the feeling of thirst with following experience of water licking from bottle in the experimental chamber. The animals were deprived of water for 24 hours and were placed in the test chamber for 5-min adaptation period during which they had free access to the drinking bottle. After another 24 h deprivation period the rats were placed again in the test chamber and were allowed to drink water for 5 sec. Immediately afterwards drinking attempts were punished by electric shock (0,5 mA). Under this collision of drinking and protective reflexes the extremal situation was developed. In this situation the anxiety of punishment prevented the licking process. The number of shocks received throughout a 5-min experimental session was recorded.

[6] = tested on: outbred male mice; test: rotarod test (myorelaxant activity); settings: cut-off 120 sec
Method: The myorelaxant activity of choosen compounds were studied in the outbred male mice weighing 22-25 g in rotarod test [Voronina T. A. et al., in: “Phenazepam”, Naukova Dumka, Kiev, 1982, p.145]. The animals were placed on the horizontal rotarod (D=2 cm) calibrated for a fixed speed of 4 rpm. According to the rotarod experimental protocol, normal motor coordination was defined by the ability of the animals to remain on the rotarod for an arbitrarily selected time of 120 sec.

[7] = tested on: male outbred mice; test: potentiation of sleep induced by sodium thiopental
Method: The possible hypnotic effects of choosen drugs was estimated according to method of potentiation of sleep induced by sodium thiopental. The male outbred mice weighing 20-25 g were injected i.p. with sodium thiopental at dose of 70 mg/kg. Two parameters were estimated: latent time of sleeping and duration of sleep. The used compounds were administered i.p. 30 min prior injection of sodium thiopental.

[8] = 0.5 mg/kg i.p. 30 min before thiopental 70 mg/kg i.p.
[9] = 1.0 mg/kg i.p. 30 min before thiopental 70 mg/kg i.p.
[10] = 5.0 mg/kg i.p. 30 min before thiopental 70 mg/kg i.p.
[11] = 10.0 mg/kg i.p. 30 min before thiopental 70 mg/kg i.p.

## CCOc1ccc2nc(SCCN3CCCC3)[nH]c2c1 [Compound X, 2-[2-(Pyrrolidino)ethylthio]-5-ethoxybenzimidazole]
[1]
  effect on the behavior (locomotor activity) of Balb/c mice in open-field test, in words: neither activatory nor inhibitory effects
[2]; doses of 0,5 mg/kg-2,0 mg/kg
  effect on heart rate, in words: small and short bradycardia
[3]
  antifibrillatory effect, in words: trend to decrease the number of ventricular fibrillations

## Cc1cc2nc(SCCN3CCOCC3)[nH]c2cc1C [XV, 2-[2-(Morpholino)ethylthio]-5,6-dimethylbenzimidazole]
[1]; 0.01 mg/kg i.p., M ± mx
  Number of defecations: 0.5 ± 0.5
  Peripheral activity (crossings): 6.9 ± 1.8
  Total activity: 6.9 ± 1.8
[1]; 0.1 mg/kg i.p., M ± mx
  Number of defecations: 1.0 ± 0.7
  Peripheral activity (crossings): 11.1 ± 2.1
  Total activity: 11.2 ± 2.1
[1]; 0.5 mg/kg i.p., M ± mx
  Central activity (crossings): 0.5 ± 0.4
  Number of defecations: 1.6 ± 0.7
  Peripheral activity (crossings): 32.1 ± 4.7
  Total activity: 32.6 ± 5.0
[1]; 1.0 mg/kg i.p., M ± mx
  Central activity (crossings): 5.1 ± 4.4
  Number of defecations: 2.0 ± 0.9
  Peripheral activity (crossings): 37.7 ± 5.5
  Total activity: 42.8 ± 9.9
[1]; 5.0 mg/kg i.p., M ± mx
  Number of defecations: 3.6 ± 0.9
  Peripheral activity (crossings): 39.1 ± 8.6
  Total activity: 39.1 ± 8.6
[1]; 10.0 mg/kg i.p., M ± mx
  Central activity (crossings): 0.6 ± 0.5
  Peripheral activity (crossings): 44.9 ± 13.0
  Total activity: 45.9 ± 13.8
  Vertical activity (rearings): 0.4 ± 0.3 —
[1]; 75.0 mg/kg i.p., M ± mx
  Number of defecations: 2.7 ± 1.3
  Peripheral activity (crossings): 8.8 ± 2.9
  Total activity: 8.8 ± 2.9
[1]; 100.0 mg/kg i.p., M ± mx
  Peripheral activity (crossings): 6.5 ± 3.1
  Total activity: 6.5 ± 3.1
[1]
  effect on the behavior (locomotor activity) of Balb/c mice in open-field test, in words: able to activate the behavior of Balb/c mice
[4]; 1.0 mg/kg i.p.
  Central activity (crossings): 39.0 ± 6.9
  Peripheral activity (crossings): 87.8 ± 6.7
  Total activity: 138.2 ± 16.1
  Vertical activity (rearings): 11.4 ± 2.5
[4]; 5.0 mg/kg i.p.
  Central activity (crossings): 36.4 ± 5.7
  Peripheral activity (crossings): 87.8 ± 14.6
  Total activity: 139.1 ± 22.6
  Vertical activity (rearings): 14.9 ± 2.3
[4]; 50.0 mg/kg i.p.
  Central activity (crossings): 35.0 ± 8.1
  Peripheral activity (crossings): 54.1 ± 10.7
  Total activity: 95.4 ± 20.4
  Vertical activity (rearings): 6.3 ± 1.6
[4]; i.p., doses that activate Balb/c mice
  effect on locomotor activity of C57B1/6 mice in open-field test, in words: without any changes in locomotor activity
[5]; 1.0 mg/kg i.p.
  number of punished lickings (shocks received in 5-min session): 59.1 ± 16.7
[5]; 5.0 mg/kg i.p.
  number of punished lickings (shocks received in 5-min session): 35.3 ± 5.5
[5]; 10.0 mg/kg i.p.
  number of punished lickings (shocks received in 5-min session): 38.0 ± 9.4
[5]; 20.0 mg/kg i.p.
  number of punished lickings (shocks received in 5-min session): 73.9 ± 24.1
[6]; 0.1 mg/kg
  time of remaining on the rotarod: 120 + 0 sec
[6]; 1.0 mg/kg
  time of remaining on the rotarod: 120 + 0 sec
[6]; 5.0 mg/kg
  time of remaining on the rotarod: 120 + 0 sec
[6]; 10.0 mg/kg
  time of remaining on the rotarod: 120 + 0 sec
[6]; 20.0 mg/kg
  time of remaining on the rotarod: 120 + 0 sec
[7]; [8]
  duration of sleep after sodium thiopental: 78.4 ± 18.2 min
  latent time of sleep after sodium thiopental: 2.5 ± 0.2 s
[7]; [9]
  duration of sleep after sodium thiopental: 70.5 ± 13.7 min
  latent time of sleep after sodium thiopental: 2.8 ± 0.2 s
[7]; [10]
  duration of sleep after sodium thiopental: 56.8 ± 19.1 min
  latent time of sleep after sodium thiopental: 2.3 ± 0.2 s
[7]; [11]
  duration of sleep after sodium thiopental: 74.7 ± 18.7 min
  latent time of sleep after sodium thiopental: 2.8 ± 0.3 s
[2]; dose of 5 mg/kg
  effect on heart rate, in words: small, but statistically significant bradycardia

Reference: patent US6376666B1 (Nauchno-Issledovatelsky Institut Farmakologii Rossiiskoi …, priority 1994, dated 2002)
